Patent US20230143042A1, “SYSTEM AND METHOD FOR AEROSOL PARTICLE PRODUCTION OF SUBMICRON AND NANO STRUCTURED MATERIALS” (The Trustees of Princeton University, priority 2020, published 2023)

Assay: Size of dried aerosol particles by scanning electron microscopy
Assay type: physicochemical
Details: atomized at 1.5 bar gauge (TIPT-based sol 2.5 bar), dried in room air ~23° C., ~30% RH
Procedure: Various concentrations (e.g., 0.5-15% wt.) of solutions of sodium chloride in deionized water was prepared by mixing the crystals of table salt (NaCl) with deionized water at 45° C. for 15 min. The procedure for preparing precursor of silica (SiO2) was: tetraethoxysilane (TEOS), ethanol, deionized water, and HCl (mole ratio 1:3.8:1:5×10−5) were mixed at 60° C. for 120 min and then aged at room temperature under continuous stirring up to 43 hours. For synthesis of titania (TiO2) particles, titanium (IV) tetraisopropoxide (TIPT) and titanium (IV) butoxide (TBT)-based precursors were utilized. […]
For the salt solutions, the temperature and relative humidity of room air used for drying of droplets were ˜23° C. and ˜30% respectively. […] Provided the measured air velocity used to dry the droplets is ˜0.1-0.5 m/s (laminar flow, Re=300-1600), in terms of the drying kinetics of a single droplet, the generated droplets are expected to turn into dry particles after traveling 0.04-400 μm in room air, whereas the overall particle residence time in the setup is ˜1-5 s, which is much longer than the needed drying time. […]

[Cl-].[Na+] [NaCl, sodium chloride] gave a mean particle size of 227 nm.
